Results as given in US20240382629A1, “HETEROBIVALENT AND HOMOBIVALENT AGENTS TARGETING FIBROBLAST ACTIVATION PROTEIN ALPHA AND/OR PROSTATE-SPECIFIC MEMBRANE ANTIGEN” (The Johns Hopkins University, priority 2021, published 2024).
Where two headings read alike, the source gives them in different places. Blank lines part the entries; values can stand above or below the molecule they belong to.

Legend:
[1] = target: FAP (Homo sapiens (Human), UniProt Q12884); assay: FAP inhibition assay (recombinant enzyme, Z-Gly-Pro-AMC substrate); format: biochemical; settings: for Ki: read-out: FAP Ki
Sequence of FAP (Q12884 whole entry): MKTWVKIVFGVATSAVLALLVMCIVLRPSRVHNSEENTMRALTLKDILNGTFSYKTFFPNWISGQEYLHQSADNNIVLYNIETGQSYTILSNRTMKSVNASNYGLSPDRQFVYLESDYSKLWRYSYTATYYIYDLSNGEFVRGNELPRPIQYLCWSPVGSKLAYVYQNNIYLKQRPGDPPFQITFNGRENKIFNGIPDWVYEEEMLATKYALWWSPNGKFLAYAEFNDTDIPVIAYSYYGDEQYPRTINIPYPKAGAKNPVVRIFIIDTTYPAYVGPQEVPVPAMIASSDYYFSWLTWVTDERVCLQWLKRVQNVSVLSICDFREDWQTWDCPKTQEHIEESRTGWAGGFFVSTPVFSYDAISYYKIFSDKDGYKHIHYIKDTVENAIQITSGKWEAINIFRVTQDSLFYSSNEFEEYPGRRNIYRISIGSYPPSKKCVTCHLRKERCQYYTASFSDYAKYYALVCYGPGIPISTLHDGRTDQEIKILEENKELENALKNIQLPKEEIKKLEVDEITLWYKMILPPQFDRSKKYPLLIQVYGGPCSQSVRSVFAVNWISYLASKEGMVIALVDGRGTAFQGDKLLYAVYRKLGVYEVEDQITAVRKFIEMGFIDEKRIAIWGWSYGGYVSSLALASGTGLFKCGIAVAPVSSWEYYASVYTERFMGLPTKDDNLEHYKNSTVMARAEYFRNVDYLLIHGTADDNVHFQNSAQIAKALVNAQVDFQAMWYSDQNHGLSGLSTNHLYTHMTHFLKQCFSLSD
Method: (§1) PSMA binding affinities of the compounds were determined using a competitive inhibition assay as previously reported. […] FAP, prolyl endopeptidase (PREP), and […] (DPPIV) inhibition assays: Recombinant enzymes (FAP, PREP, DPPIV) were purchased from R&D Systems (Minneapolis, MN). […] Z-Gly-Pro-AMC was used as a substrate for FAP and PREP. H-Gly-Pro-AMC was used as a substrate for DPPIV. The recombinant enzyme (0.4 μg/mL) was incubated with varying amounts of the test articles in the presence of the designated substrate (80 μM) for 10 min at room temperature. Fluorescence intensity was measured with 380 nm excitation and 460 nm emission using the Cytation 5 Cell Imaging Multi-Mode Reader (BioTek, Winooski, VT). IC50 and Ki values were obtained using a sigmoidal dose-response function.

[2] = target: PREP (Homo sapiens (Human), UniProt P48147); assay: PREP inhibition assay (recombinant enzyme, Z-Gly-Pro-AMC substrate); format: biochemical
Sequence of PREP (P48147 whole entry): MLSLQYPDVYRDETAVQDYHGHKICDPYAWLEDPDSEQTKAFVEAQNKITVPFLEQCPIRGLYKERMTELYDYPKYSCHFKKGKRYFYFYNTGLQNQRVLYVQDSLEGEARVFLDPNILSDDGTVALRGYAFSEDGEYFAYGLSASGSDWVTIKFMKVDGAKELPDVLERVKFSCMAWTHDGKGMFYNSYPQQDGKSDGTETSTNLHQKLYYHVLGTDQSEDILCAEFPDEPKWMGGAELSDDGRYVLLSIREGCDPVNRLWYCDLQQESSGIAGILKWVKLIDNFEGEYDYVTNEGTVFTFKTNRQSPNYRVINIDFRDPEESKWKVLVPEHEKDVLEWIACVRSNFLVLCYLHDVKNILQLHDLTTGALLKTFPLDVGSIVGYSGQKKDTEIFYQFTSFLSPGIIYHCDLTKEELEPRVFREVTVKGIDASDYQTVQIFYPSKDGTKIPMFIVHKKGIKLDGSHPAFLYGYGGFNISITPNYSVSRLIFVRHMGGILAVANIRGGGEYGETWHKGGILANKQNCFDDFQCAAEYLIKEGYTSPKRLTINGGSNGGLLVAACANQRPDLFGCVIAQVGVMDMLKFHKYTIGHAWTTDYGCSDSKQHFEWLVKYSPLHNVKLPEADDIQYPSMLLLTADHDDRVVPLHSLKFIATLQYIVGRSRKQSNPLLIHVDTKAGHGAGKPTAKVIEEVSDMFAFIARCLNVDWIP
Method: as §1

[3] = target: DPPIV (Homo sapiens (Human), UniProt P27487); assay: DPPIV inhibition assay (recombinant enzyme, H-Gly-Pro-AMC substrate); format: biochemical; settings: for IC50: read-out: DPPIV IC50
Sequence of DPPIV (P27487 whole entry): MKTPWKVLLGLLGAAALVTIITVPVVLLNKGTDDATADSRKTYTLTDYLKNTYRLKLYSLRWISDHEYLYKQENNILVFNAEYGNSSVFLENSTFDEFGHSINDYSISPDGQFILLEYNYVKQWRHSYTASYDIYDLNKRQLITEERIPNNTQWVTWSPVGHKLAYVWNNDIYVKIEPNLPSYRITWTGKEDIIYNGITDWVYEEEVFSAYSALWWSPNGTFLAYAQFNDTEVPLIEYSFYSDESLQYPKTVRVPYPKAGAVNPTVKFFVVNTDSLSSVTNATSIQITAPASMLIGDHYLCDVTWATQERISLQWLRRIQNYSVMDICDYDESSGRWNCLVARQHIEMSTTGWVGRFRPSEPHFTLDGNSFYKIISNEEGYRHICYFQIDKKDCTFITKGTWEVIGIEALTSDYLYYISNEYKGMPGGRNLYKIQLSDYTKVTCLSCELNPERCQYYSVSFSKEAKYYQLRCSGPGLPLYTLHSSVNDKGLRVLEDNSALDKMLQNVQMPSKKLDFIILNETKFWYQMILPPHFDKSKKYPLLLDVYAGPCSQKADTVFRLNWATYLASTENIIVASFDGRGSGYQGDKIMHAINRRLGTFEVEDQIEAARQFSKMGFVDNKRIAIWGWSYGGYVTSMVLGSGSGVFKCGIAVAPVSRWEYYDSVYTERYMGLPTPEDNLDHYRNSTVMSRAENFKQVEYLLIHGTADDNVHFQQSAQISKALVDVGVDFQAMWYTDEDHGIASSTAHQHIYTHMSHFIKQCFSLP
Method: as §1

[4] = target: PSMA (Homo sapiens (Human), UniProt Q04609); assay: PSMA competitive inhibition assay (NAAG substrate, LNCaP cell lysate); format: biochemical; settings: for Ki: read-out: PSMA Ki
Sequence of PSMA (Q04609 whole entry): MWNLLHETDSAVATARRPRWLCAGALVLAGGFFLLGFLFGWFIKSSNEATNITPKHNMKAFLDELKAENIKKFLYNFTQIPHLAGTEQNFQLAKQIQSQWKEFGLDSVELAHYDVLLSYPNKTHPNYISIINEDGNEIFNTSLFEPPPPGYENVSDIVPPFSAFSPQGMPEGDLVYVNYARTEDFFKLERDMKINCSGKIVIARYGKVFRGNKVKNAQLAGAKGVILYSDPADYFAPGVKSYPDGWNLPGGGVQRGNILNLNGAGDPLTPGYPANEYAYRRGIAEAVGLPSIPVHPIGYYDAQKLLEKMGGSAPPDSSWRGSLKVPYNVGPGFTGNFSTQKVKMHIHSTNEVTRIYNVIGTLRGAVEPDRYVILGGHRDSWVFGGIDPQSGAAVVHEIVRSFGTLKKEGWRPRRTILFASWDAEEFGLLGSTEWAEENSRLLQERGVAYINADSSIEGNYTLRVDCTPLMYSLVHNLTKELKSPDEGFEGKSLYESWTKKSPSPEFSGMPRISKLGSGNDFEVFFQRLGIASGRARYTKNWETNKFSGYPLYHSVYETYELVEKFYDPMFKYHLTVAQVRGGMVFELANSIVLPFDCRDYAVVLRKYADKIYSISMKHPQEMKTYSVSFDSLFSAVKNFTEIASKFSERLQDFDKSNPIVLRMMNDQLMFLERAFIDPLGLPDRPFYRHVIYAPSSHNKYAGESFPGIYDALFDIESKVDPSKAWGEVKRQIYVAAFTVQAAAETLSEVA
Method: as §1

[5] = system: MDA-MB-231; assay: Biodistribution in MB-MDA-231 NSG mice; format: in vivo, mouse; parameters: Biodistribution: Spleen / Biodistribution: Fat / Biodistribution: Kidney / Biodistribution: Muscle / Biodistribution: Small Intestine / Biodistribution: Salivary Gland / Biodistribution: Lacrimal gland / Biodistribution: Bladder / Biodistribution: Bone / Biodistribution: MDA-MB-231 / Biodistribution: Blood / Biodistribution: Heart / Biodistribution: Lung / Biodistribution: Liver / Biodistribution: Stomach: unit not given here

IC50 ([1]; Table 3): 1.4 nM
Ki ([1]; Table 3): 0.28 nM
IC50 ([2]; Table 3): 1090 nM
IC50 ([3]; Table 3): 6220 nM
Compound: N#C[C@@H]1CCCN1C(=O)CNC(=O)c1ccnc2ccc(OCCOCCNC(=O)[C@H](CCCCNC(=O)c3ccc(F)nc3)NC(=O)CN3CCN(CC(=O)O)CCN(CC(=O)O)CCN(CC(=O)O)CC3)cc12 [JHU1221803]

Compound: N#C[C@@H]1CCCN1C(=O)CNC(=O)c1ccnc2ccc(OCCCNC(=O)CNC(=O)[C@H](CCCCNC(=O)c3ccc(F)nc3)NC(=O)CN3CCN(CC(=O)O)CCN(CC(=O)O)CCN(CC(=O)O)CC3)cc12 [JHU1221804]
IC50 ([1]; Table 3): 1.01 nM
Ki ([1]; Table 3): 0.2 nM
IC50 ([2]; Table 3): 1710 nM
IC50 ([3]; Table 3): 8310 nM

Compound: N#C[C@@H]1CCCN1C(=O)CNC(=O)c1ccnc2ccc(OCCCNC(=O)CCOCCOCCOCCOCCNC(=O)[C@H](CCCCNC(=O)c3ccc(F)nc3)NC(=O)CN3CCN(CC(=O)O)CCN(CC(=O)O)CCN(CC(=O)O)CC3)cc12 [JHU1221823]
IC50 ([1]; Table 3): 0.59 nM
Ki ([1]; Table 3): 0.12 nM
IC50 ([2]; Table 3): 240 nM
IC50 ([3]; Table 3): 7470 nM

Compound: N#C[C@@H]1CCCN1C(=O)CNC(=O)c1ccnc2ccc(OCCCNC(=O)CCc3cn(CCOCCOCCOCCC(=O)N[C@@H](CCCCNC(=O)CN4CCN(CC(=O)O)CCN(CC(=O)O)CC4)C(=O)NCCCCC(=O)N(CCCC[C@H](NC(=O)N[C@@H](CCC(=O)O)C(=O)O)C(=O)O)Cc4ccc(Br)cc4)nn3)cc12 [SB-FAP-02]
IC50 ([1]; Table 4): 1.53 nM
Ki ([1]; Table 4): 0.31 nM
Ki [1]: 0.31 nM
Ki [2]: 116000 nM
IC50 ([2]; Table 4): 580 nM
Ki [3]: 1760 nM
IC50 ([3]; Table 4): 8810 nM
IC50 ([4]; Table 4): 90 nM
Ki ([4]; Table 4): 18.1 nM
Ki [4]: 18.1 nM
PSMA binding affinity, fold lower than FP-L2 ([4]; relative to FP-L2): 2 fold
Biodistribution: Blood ([5]; At 1 h nude mice): 8.47 ± 0.16
Biodistribution: Bone ([5]; At 1 h nude mice): 3.34 ± 0.32
Biodistribution: Fat ([5]; At 1 h nude mice): 0.61 ± 0.31
Biodistribution: Heart ([5]; At 1 h nude mice): 3.46 ± 0.07
Biodistribution: Kidney ([5]; At 1 h nude mice): 12.14 ± 1.39
Biodistribution: Lacrimal gland ([5]; At 1 h nude mice): 6.61 ± 1.23
Biodistribution: Liver ([5]; At 1 h nude mice): 6.74 ± 0.16
Biodistribution: Lung ([5]; At 1 h nude mice): 5.16 ± 0.04
Biodistribution: MDA-MB-231 ([5]; At 1 h nude mice): 3.60 ± 0.32
Biodistribution: Muscle ([5]; At 1 h nude mice): 1.59 ± 0.07
Biodistribution: Pancreas ([5]; At 1 h nude mice): 4.95 ± 0.24
Biodistribution: Salivary Gland ([5]; At 1 h nude mice): 7.75 ± 0.99
Biodistribution: Small Intestine ([5]; At 1 h nude mice): 6.69 ± 0.82
Biodistribution: Spleen ([5]; At 1 h nude mice): 2.38 ± 0.04
Biodistribution: Stomach ([5]; At 1 h nude mice): 2.72 ± 0.30
Biodistribution: Bladder ([5]; At 2 h NSG mice): 1.82 ± 0.26

Compound: N#C[C@@H]1CCCN1C(=O)CNC(=O)c1ccnc2ccc(OCCCNC(=O)CCc3cn(CCOCCOCCOCCC(=O)N[C@@H](CCCCNC(=O)CCC(C(=O)O)N4CCN(CC(=O)O)CCN(CC(=O)O)CCN(CC(=O)O)CC4)C(=O)NCCCCC(=O)N(CCCC[C@H](NC(=O)N[C@@H](CCC(=O)O)C(=O)O)C(=O)O)Cc4ccc(Br)cc4)nn3)cc12 (some centres unmarked) [SB-FAP-03]
IC50 ([1]; Table 4): 3.42 nM
Ki ([1]; Table 4): 0.68 nM
IC50 ([2]; Table 4): 1370 nM
IC50 ([3]; Table 4): 18400 nM
IC50 ([4]; Table 4): 14.5 nM
Ki ([4]; Table 4): 2.89 nM

IC50 ([1]; Table 4): 1.84 nM
Ki ([1]; Table 4): 0.37 nM
IC50 ([2]; Table 4): 370 nM
IC50 ([3]; Table 4): 14100 nM
IC50 ([4]; Table 4): 4.71 nM
Ki ([4]; Table 4): 0.94 nM
Compound: N#C[C@@H]1CCCN1C(=O)CNC(=O)c1ccnc2ccc(OCCCNC(=O)CCc3cn(CCCC[C@H](NC(=O)CN4CCN(CC(=O)O)CCN(CC(=O)O)CCN(CC(=O)O)CC4)C(=O)NCCCCCC(=O)N(CCCC[C@H](NC(=O)N[C@@H](CCC(=O)O)C(=O)O)C(=O)O)Cc4ccc(Br)cc4)nn3)cc12 [SB-FAP-06]

IC50 ([1]; Table 4): 0.65 nM
Ki [1]: 0.13 nM
Ki [2]: 210 nM
IC50 ([2]; Table 4): 1070 nM
Ki [3]: 3040 nM
IC50 ([3]; Table 4): 11700 nM
IC50 ([4]; Table 4): 39.6 nM
Ki [4]: 7.92 nM
Compound: N#C[C@@H]1CCCN1C(=O)CNC(=O)c1ccnc2ccc(OCCCNC(=O)CCc3cn(CCCC[C@H](NC(=O)CN4CCN(CC(=O)O)CCN(CC(=O)O)CC4)C(=O)NCCCCCC(=O)N(CCCC[C@H](NC(=O)N[C@@H](CCC(=O)O)C(=O)O)C(=O)O)Cc4ccc(Br)cc4)nn3)cc12 [SB-FAP-07]

IC50 ([1]; Table 3): 0.48 nM
Ki ([1]; Table 3): 0.1 nM
IC50 ([2]; Table 3): 630 nM
IC50 ([3]; Table 3): 2050 nM
Compound: N#CC1CCCN1C(=O)CNC(=O)c1ccnc2ccc(OCCCNC(=O)CCc3cn(CCCC[C@H](NC(=O)CN4CCN(CC(=O)O)CCN(CC(=O)O)CC4)C(=O)NCCCOc4ccc5nccc(C(=O)NCC(=O)N6CCC[C@H]6C#N)c5c4)nn3)cc12 (some centres unmarked) [SB-FAP-09]

Compound: CC1(C)C(/C=C/C2=C(Oc3ccc(S(=O)(=O)O)cc3)C(=C/C=C3/N(CCCCS(=O)(=O)O)c4ccc(S(=O)(=O)O)cc4C3(C)C)/CCC2)=[N+](CCCCCC(=O)N[C@@H](CCCCn2cc(CCC(=O)NCCCOc3ccc4nccc(C(=O)NCC(=O)N5CCC[C@H]5C#N)c4c3)nn2)C(=O)NCCNC(=O)CCC(C(=O)O)N2CCN(CC(=O)O)CCN(CC(=O)O)CCN(CC(=O)O)CC2)c2ccc(S(=O)(=O)[O-])cc21 (some centres unmarked) [SB-FAP-10]
IC50 ([1]; Table 4): 3.43 nM
Ki ([1]; Table 4): 0.69 nM
IC50 ([2]; Table 4): 2530 nM
IC50 ([3]; Table 4): 11900 nM

Compound: N#C[C@@H]1CCCN1C(=O)CNC(=O)c1ccnc2ccc(OCCCNC(=O)CCc3cn(CCCC[C@H](NC(=O)c4ccc(F)nc4)C(=O)NCCNC(=O)CCC(C(=O)O)N4CCN(CC(=O)O)CCN(CC(=O)O)CCN(CC(=O)O)CC4)nn3)cc12 (stereo partly drawn) [SB-FAP-11, 2,2′,2″-(10-(1-Carboxy-4-((2-((S)-6-(4-(3-((3-((4-((2-((S)-2-cyanopyrrolidin-1-yl)-2-oxoethyl)carbamoyl)quinolin-6-yl)oxy)propyl)amino)-3-oxopropyl)-1H-1,2,3-triazol-1-yl)-2-(6-fluoronicotinamido)hexanamido)ethyl)amino)-4-oxobutyl)-1,4,7,10-tetraazacyclododecane-1,4,7-triyl)triacetic acid]
IC50 ([1]; Table 3): 0.35 nM
Ki ([1]; Table 3): 0.07 nM
IC50 ([2]; Table 3): 510 nM
IC50 ([3]; Table 3): 9480 nM

IC50 ([1]; Table 4): 2.23 nM
Ki ([1]; Table 4): 0.45 nM
IC50 ([2]; Table 4): 11200 nM
IC50 ([3]; Table 4): 9910 nM
IC50 ([4]; Table 4): 4710 nM
Ki ([4]; Table 4): 940 nM
Compound: N#CC1CCCN1C(=O)CNC(=O)c1ccnc2ccc(OCCCNC(=O)CCc3cn(CC[C@H](NC(=O)CN4CCN(CC(=O)O)CCN(CC(=O)O)CC4)C(=O)NCCCCCC(=O)NCCCC[C@H](NC(=O)N[C@@H](CC(=O)O)C(=O)O)C(=O)O)nn3)cc12 (some centres unmarked) [SRI-07-42]
